{"source": "patent US10117433B2", "about": "(priority 2011, dated 2018)", "key": {"[1]": {"system": "adult worker honeybees (Apismellifera)", "details": "acute contact; cited from earlier work"}, "[2]": {"system": "adult worker honeybees (Apismellifera)", "details": "acute oral; cited from earlier work"}, "M. brassicae larvae [3]": {"system": "M. brassicae larvae", "parameters": "species or system Mamestra brassicae", "details": "in vivo"}, "M. brassicae larvae [4]": {"system": "M. brassicae larvae", "parameters": "species or system Mamestra brassicae", "details": "in vivo", "remark": "listed apart in the source"}, "Honeybees": {"system": "Honeybees", "details": "in vivo"}, "[5]": {"system": "central nerve chord of M. brassicae larvae", "details": "in vivo"}, "[6]": {"system": "adult worker honeybees (Apismellifera)", "details": "in vivo, po"}, "[7]": {"system": "tomato moth (Lacanobia oleracea)", "format": "in vivo", "experimental": "Effect of Transgenic Arabidopsis Expressing Fusion Proteins when Fed to Tomato Moth (Lacanobia oleracea)\n20 neonate Lacanobia oleracea larvae were placed in pots (4 replicates, 5 larvae per pot) and allowed to feed on detached leaves of transgenic Arabidopsis plants. Survival was measured over the course of a 14-day period and weights were measured at days 11 and 14. Assays were repeated giving a total sample number of 40. Treatments used were control, GNA-expressing, ButalT/GNA fusion protein expressing, and GNA/ButalT fusion protein expressing. Two independent lines expressing the ButalT/GNA fusion protein (lines 40 and 45) were used."}, "[8]": {"system": "cereal aphid Sitobion avenae", "details": "in vivo"}, "M. brassicae larvae [9]": {"system": "M. brassicae larvae", "parameters": "species or system Mamestra brassicae", "details": "in vivo", "remark": "listed apart in the source"}, "M. brassicae larvae [10]": {"system": "M. brassicae larvae", "parameters": "species or system Mamestra brassicae", "details": "in vivo", "remark": "listed apart in the source"}, "[11]": {"system": "cotton bollworm Heliothis armigera", "details": "in vivo; cited from earlier work"}, "Heliothis virescens": {"system": "Heliothis virescens", "details": "in vivo; cited from earlier work"}, "[12]": {"system": "vertebrate-muscle preparations", "details": "cited from earlier work"}, "newborn mice": {"system": "newborn mice", "details": "mouse, in vivo; cited from earlier work"}}, "note": "Where two headings read alike, the source gives them in different places."}
{"compound": "C/C(=N\\C#N)N(C)Cc1ccc(Cl)nc1", "note": "[Acetamiprid]", "values": [{"measurement": "reported LD50", "setting": "[1]", "result": 8.09, "unit": "μg/bee"}, {"measurement": "reported LD50", "setting": "[2]", "result": 14.5, "unit": "ug/bee"}]}
{"compound": "Galanthus nivalis agglutinin [GNA]", "values": [{"measurement": "effect upon larvae when injected", "setting": "M. brassicae larvae [3]", "result": "no effect"}, {"measurement": "average weight of surviving larvae reduced by", "setting": "M. brassicae larvae [4]", "result": 45, "unit": "%"}, {"measurement": "survival (larvae remained)", "setting": "M. brassicae larvae [4]", "result": 80, "unit": "%"}, {"measurement": "toxicity by injection", "setting": "Honeybees", "result": "higher toxicity than FP5"}, {"measurement": "bands in nerve tissue (anti-GNA Western blot)", "setting": "[5]", "result": "not observed"}, {"measurement": "presence in nerve chord and haemolymph samples (anti-GNA Western blot)", "setting": "[5]", "result": "positive immunoreactivity"}, {"measurement": "LD50", "setting": "[6]", "result": "> 100", "unit": "μg/bee"}, {"measurement": "LD50 to honeybees", "setting": "[6]", "result": "greater than 100 ug/bee"}, {"measurement": "effects on mortality", "setting": "[6]", "result": "smaller effects on mortality than acetamiprid"}, {"measurement": "survival", "setting": "[7]; first assay (FIG. 16), 14 days, ButalT/GNA line 40, GNA line 3, control 93%", "result": 90, "unit": "%"}, {"measurement": "survival / larval mortality compared to controls", "setting": "[7]; neonate larvae, conclusions", "result": "no effect on larval mortality"}, {"measurement": "reduction in mean weight", "setting": "[7]; second assay, days 11 and 14, vs control", "result": "approx. 50%"}, {"measurement": "survival compared to control treatments", "setting": "[8]", "result": "does not have a significant effect on the survival"}]}
{"compound": "ω-ACTX-Hv1a", "values": [{"measurement": "symptoms after injection of higher doses", "setting": "M. brassicae larvae [3]", "result": "displayed symptoms of paralysis"}, {"measurement": "larval growth", "setting": "M. brassicae larvae [9]", "result": "no effect on larval growth"}, {"measurement": "larval feeding / larval growth", "setting": "M. brassicae larvae [10]", "result": "no reduction in larval growth"}, {"measurement": "oral activity", "setting": "M. brassicae larvae [10]; po", "result": "not orally active"}, {"measurement": "ED50", "setting": "[11]", "result": 3, "unit": "nmol/g"}, {"measurement": "PD50", "setting": "Heliothis virescens", "result": 250, "unit": "pmol/g"}, {"measurement": "effect on vertebrate-muscle preparations", "setting": "[12]", "result": "no effect"}, {"measurement": "effect on newborn mice", "setting": "newborn mice", "result": "harmless"}]}
